# Data as given in patent US20250120920A1, “DRUG-DELIVERING NERVE WRAP” (UNIVERSITY OF UTAH RESEARCH FOUNDATION, priority 2019, published 2025).
# Assays:
# [1] = type: physicochemical
# Experimental: The inventors discovered that FK506, in particular, is subject to thermal degradation beginning at about 140° C. when incorporated into the preferred polymers within the preferred loading ranges as disclosed herein. While conventional PLLA and PLLA co-polymer hot-melt extrusion protocols call for temperatures exceeding 140° C., limiting the maximum temperature still allows for sufficient manufacturability while minimizing or preventing unwanted thermal degradation of the FK506.
# [2] = tested on: whole chick DRGs; assay: DRG neurite extension bioactivity verification assay; type: cell-based; settings: 20 ng/ml FK506 positive control; 72 hours culture
# Experimental: Fertilized chicken eggs (Merrills Poultry, ID, USA) were incubated at ˜39° C. under 100% relative humidity for 12 days. Dorsal root ganglions (DRG) were dissected from the embryos under a microscope. 24-well plates were coated with laminin (1 μg/ml), then 500 μL from each media sample was placed into 3 wells. DRGs were separated carefully from connective tissue for culturing and a single DRG was placed into each well. For comparison to known FK506 concentrations, DRGs were also grown in negative and positive control concentrations of FK506, 0 ng/ml and 20 ng/ml, respectively. Groups tested: 0 ng/ml FK506 (n=4), 20 ng/ml FK506 control (n=4), Day 4 collection of LD-Wrap (n=6), and Day 4 collection of HD-Wrap (n=8). amples were diluted in DMEM/F12+10% FBS and 1% Pen-Strep. HD-Wrap and LD-Wrap drug release test samples were diluted by a factor of 10 and 2, respectively. Drug release test samples average concentrations after dilution: Day 4 LD-Wrap—18.5 ng/ml FK506 and Day 4 HD-Wrap—23.1 ng/ml FK506. The plate was incubated for 72 hours at 37° C. and 5% CO2 to evaluate the released drug's bioactivity. […] Briefly, the area of the ganglion body (ADRG) and the total area of the DRG with the growing axons (Atot) were measured using ImageJ (ImageJ 1.31v, National Institutes of Health, Bethesda, USA). The average neurite length (lavg) was calculated by: lavg=(Atot/π)^1/2−(ADRG/π)^1/2. […]
smiles,measurement,setting,value
C=CC[C@@H]1/C=C(\C)C[C@H](C)C[C@H](OC)[C@H]2O[C@@](O)(C(=O)C(=O)N3CCCC[C@H]3C(=O)O[C@H](/C(C)=C/[C@@H]3CC[C@@H](O)[C@H](OC)C3)[C@H](C)[C@@H](O)CC1=O)[C@H](C)C[C@@H]2OC [FK506],temperature at which thermal degradation begins,[1],about 140 °C
same,Average neurite extension,[2],720±72.2 μm
